PMC2120106 (The Journal of Cell Biology, 1994)

What was measured:
isolated vacuoles = test: microscopic in vitro fusion assay with CDCFDA-labeled vacuoles; design: species or system Saccharomyces cerevisiae; conditions: standard fusion reaction, 120 min; for vacuole fusion / morphology seen by fluorescence microscopy: 20 uM, Fig. 6 D, E, G, H
[1] = tested on: vacuole-to-vacuole fusion; test: in vitro vacuole-to-vacuole fusion assay; type: biochemical, Saccharomyces cerevisiae; conditions: for effect on in vitro vacuole-to-vacuole fusion (in words): added to standard reaction, Figs. 5, 7 A or data not shown; for effect on inter-vacuole fusion: Fig. 7 A
G-proteins = conditions: cited from earlier work; for stimulation of G-proteins in vitro: ref Oppi et al., 1992

N#CC(C#N)=NNc1cccc(Cl)c1 [CCCP, carbonyl cyanide m-chlorophenyl-hydrazone]
vacuole fusion / morphology seen by fluorescence microscopy (isolated vacuoles): blocked vacuole fusion
effect on in vitro vacuole-to-vacuole fusion (in words) ([1]; 25C, 120 min): inhibited vacuole fusion in vitro

Nc1nc2c(ncn2[C@@H]2O[C@H](COP(=O)(O)OP(=O)(O)OP(O)(O)=S)[C@@H](O)[C@H]2O)c(=O)[nH]1 [GTP3,S, Guanosine 5'-0-(3-thiotriphosphate)]
vacuole fusion seen by fluorescence microscopy (isolated vacuoles; 1.0 mM, Fig. 6 F): fusion was largely inhibited

NC[C@@H]1O[C@H](O[C@H]2[C@@H](O)[C@H](O[C@@H]3[C@@H](O)[C@H](N)C[C@H](N)[C@H]3O[C@H]3O[C@H](CN)[C@@H](O)[C@H](O)[C@H]3N)O[C@@H]2CO)[C@H](N)[C@@H](O)[C@@H]1O [Neomycin]
vacuole fusion seen by fluorescence microscopy (isolated vacuoles; 0.6 mM, Fig. 6 C): blocked vacuole fusion
concentration that blocks inter-vacuole fusion ([1]; standard reaction, 25C, 120 min, Fig. 5 A): 0.2 mM

CO/C1=C\C(C)=C\[C@@H](C)[C@@H](O)[C@@H](C)C/C(C)=C/C=C/[C@H](OC)[C@@H]([C@@H](C)[C@@H](O)[C@H](C)[C@@]2(O)C[C@@H](O)[C@H](C)[C@@H](C(C)C)O2)OC1=O [bafilomycin Al]
vacuole fusion / morphology seen by fluorescence microscopy (isolated vacuoles): blocked vacuole fusion
effect on in vitro vacuole-to-vacuole fusion (in words) ([1]; 25C, 120 min): inhibited vacuole fusion in vitro

F [fluoride]
effect on in vitro vacuole-to-vacuole fusion (in words) ([1]; 25C, 120 min): inhibitory

INLQALALAALAQALL-NH2 [Mas7[Q4;Q11]]
vacuole fusion / morphology seen by fluorescence microscopy (isolated vacuoles): only a weak influence
stimulation of G-proteins (G-proteins; ref Higashijima, T., personal communication): does not stimulate G-proteins
relief of the inhibition caused by mas7 ([1]; both compounds added together, data not shown): did not relieve
effect on inter-vacuole fusion ([1]; concentrations up to 50 uM, standard reaction): did not inhibit
effect on inter-vacuole fusion ([1]; very high concentration, 100 uM, standard reaction): did inhibit

LKIALNLKALIAAK-NH2 [MAS-PEP2]
stimulation of G-proteins in vitro (G-proteins): do not stimulate G-proteins in vitro
effect on in vitro vacuole-to-vacuole fusion (in words) ([1]; 25C, 120 min): inactive in the fusion assay

LNAKLKAIALALIK-NH2 [mas-PEP7]
stimulation of G-proteins in vitro (G-proteins): do not stimulate G-proteins in vitro
effect on in vitro vacuole-to-vacuole fusion (in words) ([1]; 25C, 120 min): inactive in the fusion assay

Lithium
effect on in vitro vacuole-to-vacuole fusion (in words) ([1]; 25C, 120 min): did not influence the fusion reactions

NILALAKALIKALK-NH2 [mas-PEP8]
stimulation of G-proteins in vitro (G-proteins): potent G-protein activators

Triton X-100
influence on the inhibition of fusion by mastoparan ([1]; 0-30 ug/ml plus 20 uM mastoparan, Fig. 8): did not influence the effects of mastoparan on fusion
fusion in standard fusion reactions ([1]; added at 0.01%, data not shown): no fusion could be observed
effect on vacuole fusion ([1]; detergent control, up to highest concentration tested, 30 ug/ml, Fig. 8): did not inhibit vacuole fusion

benzalkonium chloride [BAC]
concentration of maximal inhibition of inter-vacuolar fusion ([1]; alone in standard fusion assay, Fig. 8): 10 #g/ml

mastoparan
effect on in vitro vacuole-to-vacuole fusion (in words) ([1]; 25C, 120 min): inhibited
